How the values were obtained:
[1] = target: B-Raf (Homo sapiens, UniProt P15056); experiment: Kinase activity assay, B-Raf; format: biochemical; conditions: read-out: activity toward kinase B-Raf, IC50
[2] = target: B-Raf V600E (Homo sapiens, UniProt P15056, V600E); experiment: Kinase activity assay, B-Raf V600E; format: biochemical; conditions: read-out: activity toward kinase B-Raf V600E, IC50
[3] = target: Btk (Homo sapiens, UniProt Q06187); experiment: Kinase activity assay, Btk
[4] = target: Fms (Homo sapiens, UniProt P07333); experiment: Kinase activity assay, Fms
Fms, sequence (P07333 20-972): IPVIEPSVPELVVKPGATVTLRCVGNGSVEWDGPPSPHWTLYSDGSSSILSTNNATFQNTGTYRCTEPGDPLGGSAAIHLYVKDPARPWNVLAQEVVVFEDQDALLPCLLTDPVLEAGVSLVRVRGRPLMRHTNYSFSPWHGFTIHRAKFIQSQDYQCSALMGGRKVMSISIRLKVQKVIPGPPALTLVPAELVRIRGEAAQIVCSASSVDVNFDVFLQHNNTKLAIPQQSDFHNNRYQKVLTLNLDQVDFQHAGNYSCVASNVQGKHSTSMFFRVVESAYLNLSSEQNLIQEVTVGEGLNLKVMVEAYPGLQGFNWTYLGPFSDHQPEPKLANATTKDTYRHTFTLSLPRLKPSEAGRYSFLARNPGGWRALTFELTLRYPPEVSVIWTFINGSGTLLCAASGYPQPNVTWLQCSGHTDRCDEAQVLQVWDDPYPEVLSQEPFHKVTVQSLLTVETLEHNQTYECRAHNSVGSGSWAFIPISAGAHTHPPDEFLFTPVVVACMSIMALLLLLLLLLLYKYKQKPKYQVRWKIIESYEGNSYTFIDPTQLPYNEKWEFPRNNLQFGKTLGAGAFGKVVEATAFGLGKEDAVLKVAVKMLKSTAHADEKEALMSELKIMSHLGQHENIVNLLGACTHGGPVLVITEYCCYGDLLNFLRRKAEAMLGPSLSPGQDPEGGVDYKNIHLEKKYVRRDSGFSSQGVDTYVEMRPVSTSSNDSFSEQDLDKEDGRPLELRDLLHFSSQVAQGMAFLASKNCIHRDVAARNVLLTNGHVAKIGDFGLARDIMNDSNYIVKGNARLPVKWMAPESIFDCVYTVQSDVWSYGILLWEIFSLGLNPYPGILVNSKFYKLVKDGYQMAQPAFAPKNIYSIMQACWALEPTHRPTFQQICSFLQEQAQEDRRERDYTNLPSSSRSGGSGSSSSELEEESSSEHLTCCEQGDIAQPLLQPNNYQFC

[5] = target: Kdr (Homo sapiens, UniProt P35968); experiment: Kinase activity assay, Kdr
Kdr, sequence (P35968 20-1356): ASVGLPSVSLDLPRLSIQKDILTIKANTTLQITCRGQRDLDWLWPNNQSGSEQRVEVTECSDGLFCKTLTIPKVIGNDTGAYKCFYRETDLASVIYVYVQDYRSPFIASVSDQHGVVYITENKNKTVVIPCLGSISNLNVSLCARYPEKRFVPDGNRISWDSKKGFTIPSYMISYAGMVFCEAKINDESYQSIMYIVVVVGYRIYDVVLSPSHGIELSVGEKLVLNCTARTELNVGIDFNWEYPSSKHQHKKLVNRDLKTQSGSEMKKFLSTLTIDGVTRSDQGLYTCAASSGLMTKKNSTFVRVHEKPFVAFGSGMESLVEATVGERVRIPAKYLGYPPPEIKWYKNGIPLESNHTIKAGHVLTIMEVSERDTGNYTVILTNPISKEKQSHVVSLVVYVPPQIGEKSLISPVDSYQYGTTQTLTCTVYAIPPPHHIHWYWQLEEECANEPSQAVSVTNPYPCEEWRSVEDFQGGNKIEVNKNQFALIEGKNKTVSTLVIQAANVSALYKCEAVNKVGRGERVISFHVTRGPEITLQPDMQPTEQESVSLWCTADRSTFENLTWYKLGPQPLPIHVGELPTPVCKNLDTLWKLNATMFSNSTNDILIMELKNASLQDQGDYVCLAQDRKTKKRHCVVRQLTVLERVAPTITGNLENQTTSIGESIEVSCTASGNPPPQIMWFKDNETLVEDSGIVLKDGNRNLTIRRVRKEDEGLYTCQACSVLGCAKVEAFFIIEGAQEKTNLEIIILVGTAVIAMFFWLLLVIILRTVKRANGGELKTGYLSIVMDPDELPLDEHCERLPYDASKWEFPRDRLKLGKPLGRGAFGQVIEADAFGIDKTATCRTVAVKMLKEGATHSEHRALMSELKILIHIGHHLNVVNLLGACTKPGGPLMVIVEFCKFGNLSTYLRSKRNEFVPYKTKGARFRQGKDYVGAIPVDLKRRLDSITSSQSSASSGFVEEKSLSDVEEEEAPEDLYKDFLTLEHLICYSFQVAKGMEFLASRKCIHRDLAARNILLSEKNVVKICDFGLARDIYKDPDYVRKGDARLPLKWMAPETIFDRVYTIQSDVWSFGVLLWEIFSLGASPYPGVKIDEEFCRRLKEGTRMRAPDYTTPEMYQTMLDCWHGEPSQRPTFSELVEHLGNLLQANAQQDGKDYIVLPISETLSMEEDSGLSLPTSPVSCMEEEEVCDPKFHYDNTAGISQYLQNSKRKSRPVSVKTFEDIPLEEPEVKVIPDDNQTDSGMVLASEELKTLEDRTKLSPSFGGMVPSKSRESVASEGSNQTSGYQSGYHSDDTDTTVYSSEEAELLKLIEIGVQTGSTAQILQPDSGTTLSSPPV

[6] = target: Kit (Homo sapiens, UniProt P10721); experiment: Kinase activity assay, Kit
[7] = target: Src (Homo sapiens, UniProt P12931); experiment: Kinase activity assay, Src
Src, sequence (P12931 whole entry): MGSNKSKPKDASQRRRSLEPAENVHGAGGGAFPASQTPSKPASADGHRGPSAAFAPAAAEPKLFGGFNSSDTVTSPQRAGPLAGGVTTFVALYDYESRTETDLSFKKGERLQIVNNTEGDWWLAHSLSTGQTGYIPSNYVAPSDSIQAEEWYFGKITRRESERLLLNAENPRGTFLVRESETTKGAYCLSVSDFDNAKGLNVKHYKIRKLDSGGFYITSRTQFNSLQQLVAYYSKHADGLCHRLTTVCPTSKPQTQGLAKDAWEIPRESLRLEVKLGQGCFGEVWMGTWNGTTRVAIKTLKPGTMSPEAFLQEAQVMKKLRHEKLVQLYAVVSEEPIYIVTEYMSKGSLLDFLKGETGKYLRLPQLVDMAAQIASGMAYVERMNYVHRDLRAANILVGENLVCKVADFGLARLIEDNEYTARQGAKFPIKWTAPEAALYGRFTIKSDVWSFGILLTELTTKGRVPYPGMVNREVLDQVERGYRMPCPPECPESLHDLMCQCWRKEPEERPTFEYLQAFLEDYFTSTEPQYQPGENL

[8] = target: T1, TEC (Homo sapiens, UniProt P42680); experiment: Kinase activity assay, TEC
T1 sequence (P42680 1-631): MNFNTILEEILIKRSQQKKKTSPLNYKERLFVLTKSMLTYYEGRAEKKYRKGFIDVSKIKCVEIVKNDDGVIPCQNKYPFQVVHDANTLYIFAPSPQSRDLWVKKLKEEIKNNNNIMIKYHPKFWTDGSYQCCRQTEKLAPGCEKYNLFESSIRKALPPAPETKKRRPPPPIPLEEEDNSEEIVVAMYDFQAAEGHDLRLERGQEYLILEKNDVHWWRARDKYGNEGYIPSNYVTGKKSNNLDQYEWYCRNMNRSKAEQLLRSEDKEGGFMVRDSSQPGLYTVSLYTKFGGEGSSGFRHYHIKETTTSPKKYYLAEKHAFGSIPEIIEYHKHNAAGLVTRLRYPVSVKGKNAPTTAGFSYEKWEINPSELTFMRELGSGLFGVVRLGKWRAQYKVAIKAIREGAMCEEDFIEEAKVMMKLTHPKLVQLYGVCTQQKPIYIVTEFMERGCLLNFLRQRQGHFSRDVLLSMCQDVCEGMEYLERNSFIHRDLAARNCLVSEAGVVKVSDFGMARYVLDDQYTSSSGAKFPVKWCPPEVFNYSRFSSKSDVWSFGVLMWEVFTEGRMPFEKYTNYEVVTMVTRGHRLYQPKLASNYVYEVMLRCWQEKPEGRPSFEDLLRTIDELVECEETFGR

[9] = target: C-Raf (Homo sapiens, UniProt P04049); experiment: Kinase activity assay, C-Raf
C-Raf, sequence (P04049 whole entry): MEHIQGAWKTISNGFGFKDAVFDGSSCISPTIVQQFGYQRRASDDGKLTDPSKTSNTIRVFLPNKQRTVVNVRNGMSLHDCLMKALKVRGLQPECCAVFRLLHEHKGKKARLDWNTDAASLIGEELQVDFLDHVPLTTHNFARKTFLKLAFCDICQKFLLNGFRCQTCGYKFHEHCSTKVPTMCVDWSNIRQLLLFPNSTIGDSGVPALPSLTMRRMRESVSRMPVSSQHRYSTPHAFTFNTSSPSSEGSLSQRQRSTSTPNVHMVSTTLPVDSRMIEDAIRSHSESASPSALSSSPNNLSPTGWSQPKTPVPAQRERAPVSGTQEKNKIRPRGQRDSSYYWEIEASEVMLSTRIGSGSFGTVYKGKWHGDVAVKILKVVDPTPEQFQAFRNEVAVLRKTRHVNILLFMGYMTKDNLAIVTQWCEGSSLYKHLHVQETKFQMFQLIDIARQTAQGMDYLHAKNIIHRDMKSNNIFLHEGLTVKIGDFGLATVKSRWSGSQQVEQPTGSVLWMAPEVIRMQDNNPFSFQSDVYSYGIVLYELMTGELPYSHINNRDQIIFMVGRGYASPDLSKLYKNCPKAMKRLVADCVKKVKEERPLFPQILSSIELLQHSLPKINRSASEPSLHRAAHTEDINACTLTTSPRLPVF

[10] = target: MAP4K4 (Homo sapiens, UniProt O95819); experiment: Kinase activity assay, MAP4K4
[11] = target: T2, A-Raf (Homo sapiens, UniProt P10398); experiment: Kinase activity assay, A-Raf
T2 sequence (P10398 1-606): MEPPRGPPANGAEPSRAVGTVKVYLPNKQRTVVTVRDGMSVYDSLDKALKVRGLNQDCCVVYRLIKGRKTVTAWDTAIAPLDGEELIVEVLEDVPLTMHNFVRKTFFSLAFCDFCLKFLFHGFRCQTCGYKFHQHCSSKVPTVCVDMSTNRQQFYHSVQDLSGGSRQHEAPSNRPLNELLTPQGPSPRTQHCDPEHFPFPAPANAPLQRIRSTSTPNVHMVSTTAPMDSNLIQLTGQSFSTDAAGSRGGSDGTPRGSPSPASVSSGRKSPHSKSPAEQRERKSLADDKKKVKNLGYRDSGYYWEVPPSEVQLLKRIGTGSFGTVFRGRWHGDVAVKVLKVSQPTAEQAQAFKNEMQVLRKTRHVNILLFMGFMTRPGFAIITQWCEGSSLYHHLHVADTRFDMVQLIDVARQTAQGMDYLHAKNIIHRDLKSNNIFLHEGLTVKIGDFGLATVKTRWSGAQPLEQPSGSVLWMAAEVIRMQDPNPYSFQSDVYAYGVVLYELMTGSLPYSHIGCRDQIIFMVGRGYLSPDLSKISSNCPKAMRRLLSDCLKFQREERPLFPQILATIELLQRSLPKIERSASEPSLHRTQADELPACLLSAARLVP

Measured: IC50

B-Raf, sequence (P15056 whole entry): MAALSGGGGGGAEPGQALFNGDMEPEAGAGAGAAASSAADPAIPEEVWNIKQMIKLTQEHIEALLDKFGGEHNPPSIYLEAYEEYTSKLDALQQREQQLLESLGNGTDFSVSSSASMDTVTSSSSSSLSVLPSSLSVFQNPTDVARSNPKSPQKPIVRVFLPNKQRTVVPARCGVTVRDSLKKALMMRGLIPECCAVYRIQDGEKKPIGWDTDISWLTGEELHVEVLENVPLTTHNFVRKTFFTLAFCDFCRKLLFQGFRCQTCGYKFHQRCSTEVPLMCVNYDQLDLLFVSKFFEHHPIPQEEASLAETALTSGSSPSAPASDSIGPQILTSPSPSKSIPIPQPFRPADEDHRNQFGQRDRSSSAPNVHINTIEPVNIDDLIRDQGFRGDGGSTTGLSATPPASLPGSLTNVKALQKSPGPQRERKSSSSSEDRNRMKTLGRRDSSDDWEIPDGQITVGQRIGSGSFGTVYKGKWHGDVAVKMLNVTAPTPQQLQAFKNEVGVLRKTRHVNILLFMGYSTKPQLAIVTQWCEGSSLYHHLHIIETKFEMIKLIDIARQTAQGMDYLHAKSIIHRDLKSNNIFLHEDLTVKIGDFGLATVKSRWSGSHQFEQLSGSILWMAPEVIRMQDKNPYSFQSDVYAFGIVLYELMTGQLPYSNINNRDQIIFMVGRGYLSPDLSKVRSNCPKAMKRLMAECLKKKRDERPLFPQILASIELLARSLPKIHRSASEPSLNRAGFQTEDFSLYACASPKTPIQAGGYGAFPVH
Btk, sequence (Q06187 whole entry): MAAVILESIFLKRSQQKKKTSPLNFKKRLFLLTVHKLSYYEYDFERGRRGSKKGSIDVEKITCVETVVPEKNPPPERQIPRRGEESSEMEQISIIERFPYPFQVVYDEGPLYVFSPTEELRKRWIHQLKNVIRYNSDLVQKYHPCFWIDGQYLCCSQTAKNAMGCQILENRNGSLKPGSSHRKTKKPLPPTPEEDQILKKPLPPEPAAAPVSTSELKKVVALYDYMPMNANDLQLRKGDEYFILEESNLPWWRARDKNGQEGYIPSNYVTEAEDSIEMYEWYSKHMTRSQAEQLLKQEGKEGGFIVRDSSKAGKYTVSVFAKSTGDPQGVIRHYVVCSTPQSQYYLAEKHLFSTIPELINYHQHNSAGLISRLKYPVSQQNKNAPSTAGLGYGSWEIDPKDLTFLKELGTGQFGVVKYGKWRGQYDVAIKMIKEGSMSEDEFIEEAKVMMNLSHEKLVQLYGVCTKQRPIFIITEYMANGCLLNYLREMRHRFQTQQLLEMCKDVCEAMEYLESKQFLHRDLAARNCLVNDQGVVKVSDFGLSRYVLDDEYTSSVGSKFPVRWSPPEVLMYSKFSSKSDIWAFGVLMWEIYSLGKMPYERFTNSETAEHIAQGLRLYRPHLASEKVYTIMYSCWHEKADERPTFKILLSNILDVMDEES
B-Raf V600E, sequence (P15056 whole entry V600E): as the sequence (P15056 whole entry) above, with V600E counted along it

CS(=O)(=O)c1cccc(-c2cnc3[nH]cc(C(=O)c4cc(NS(=O)(=O)C5CCCCC5)ccc4F)c3c2)c1 [P-2444, Cyclohexanesulfonic acid {4-fluoro-3-[5-(3-methanesulfonyl-phenyl)-1H-pyrrolo[2,3-b]pyridine-3-carbonyl]-phenyl}-amide]
not listed: [11]
≤ 10 µM: all other assays above

COc1cnc2[nH]cc(C(=O)c3cccc(NS(=O)(=O)C4CCCCC4)c3)c2c1 [P-2460, Cyclohexanesulfonic acid [3-(5-methoxy-1H-pyrrolo[2,3-b]pyridine-3-carbonyl)-phenyl]-amide]
not listed: [1] | [2] | [9] | [11]
≤ 10 µM: all other assays above

CS(=O)(=O)Nc1cccc(-c2cnc3[nH]cc(C(=O)c4cc(NS(=O)(=O)C5CCCC5)ccc4F)c3c2)c1 [P-2447, Cyclopentanesulfonic acid {4-fluoro-3-[5-(3-methanesulfonylamino-phenyl)-1H-pyrrolo[2,3-b]pyridine-3-carbonyl]-phenyl}-amide]
not listed: [11]
≤ 10 µM: all other assays above

CS(=O)(=O)c1cccc(-c2cnc3[nH]cc(C(=O)c4cc(NS(=O)(=O)c5cccnc5)ccc4F)c3c2)c1 [P-2138, Pyridine-3-sulfonic acid {4-fluoro-3-[5-(3-methanesulfonyl-phenyl)-1H-pyrrolo[2,3-b]pyridine-3-carbonyl]-phenyl}-amide]
not listed: [1] | [2] | [9] | [11]
≤ 10 µM: all other assays above

N#Cc1ccnc2[nH]cc(C(=O)c3c(F)ccc(NS(=O)(=O)N4CCCC4)c3F)c12 [P-2394, Pyrrolidine-1-sulfonic acid [3-(4-cyano-1H-pyrrolo[2,3-b]pyridine-3-carbonyl)-2,4-difluoro-phenyl]-amide]
not listed: [4] | [6] | [10]
≤ 10 µM: all other assays above

COc1cnc2[nH]cc(C(=O)c3cccc(NS(=O)(=O)C4CCCC4)c3)c2c1 [P-2464, Cyclopentanesulfonic acid [3-(5-methoxy-1H-pyrrolo[2,3-b]pyridine-3-carbonyl)-phenyl]-amide]
not listed: [1] | [7] | [9] | [11]
≤ 10 µM: all other assays above

CN(C)S(=O)(=O)Nc1ccc(F)c(C(=O)c2c[nH]c3nccc(Cl)c23)c1F [P-2383, N,N-dimethylamino-sulfonic acid [3-(4-chloro-1H-pyrrolo[2,3-b]pyridine-3-carbonyl)-2,4-difluoro-phenyl]-amide]
not listed: [11]
≤ 10 µM: all other assays above

Cc1cnc2[nH]cc(C(=O)c3cc(NS(=O)(=O)C4CCCC4)ccc3F)c2c1 [P-2448, Cyclopentanesulfonic acid [4-fluoro-3-(5-methyl-1H-pyrrolo[2,3-b]pyridine-3-carbonyl)-phenyl]-amide]
not listed: [1] | [2] | [9] | [11]
≤ 10 µM: all other assays above

COc1cnc2[nH]cc(C(=O)c3cccc(NS(=O)(=O)c4cccnc4)c3)c2c1 [P-2142, Pyridine-3-sulfonic acid [3-(5-methoxy-1H-pyrrolo[2,3-b]pyridine-3-carbonyl)-phenyl]-amide]
not listed: [2] | [9] | [11]
≤ 10 µM: all other assays above

Cn1cc(-c2cnc3[nH]cc(C(=O)c4cccc(NS(=O)(=O)c5cccnc5)c4)c3c2)cn1 [P-2144, Pyridine-3-sulfonic acid {3-[5-(1-methyl-1H-pyrazol-4-yl)-1H-pyrrolo[2,3-b]pyridine-3-carbonyl]-phenyl}-amide]
not listed: [2] | [9] | [11]
≤ 10 µM: all other assays above

CS(=O)(=O)Nc1cccc(-c2cnc3[nH]cc(C(=O)c4cc(NS(=O)(=O)C5CCCCC5)ccc4F)c3c2)c1 [P-2446, Cyclohexanesulfonic acid {4-fluoro-3-[5-(3-methanesulfonylamino-phenyl)-1H-pyrrolo[2,3-b]pyridine-3-carbonyl]-phenyl}-amide]
not listed: [1] | [11]
≤ 10 µM: all other assays above

Cn1cc(-c2cnc3[nH]cc(C(=O)c4cc(NS(=O)(=O)c5cccnc5)ccc4F)c3c2)cn1 [P-2140, Pyridine-3-sulfonic acid{4-fluoro-3-[5-(1-methyl-1H-pyrazol-4-yl)-1H-pyrrolo[2,3-b]pyridine-3-carbonyl]-phenyl}-amide]
not listed: [11]
≤ 10 µM: all other assays above
